Reference: patent US20050119231A1, “Quinolone antibacterial agents” (priority 2003, published 2005)
Values after ≈ are worked out from the molar mass of the structure shown.

How the values were obtained:
Assay in all cases: Antibacterial microtitration assay (Test A), MIC
Type in all cases: cell-based
E. coli EC-2549 = settings: Escherichia coli, EC2549; Gram Negative Bacteria; strain EC-2549; read-out: Minimum Inhibitory Concentrations E. coli EC-2549
Procedure: (§1) Test A—Antibacterial Assays
(§2) The compounds of the present invention were tested against an assortment of Gram-negative and Gram-positive organisms using standard microtitration techniques (Cohen et. al., Antimicrob., 1985;28:766; Heifetz, et. al., Antimicrob., 1974;6:124).

H. influenzae HI-3542 = settings: Haemophilus influenzae, HI3542; Gram Negative Bacteria; strain HI-3542; read-out: Minimum Inhibitory Concentrations H. influenzae HI-3542
Procedure: as §1, §2

M. catarrhalis BC-3531 = settings: Moraxella catarrhalis, BC3531; Gram Negative Bacteria; strain BC-3531; read-out: Minimum Inhibitory Concentrations M. catarrhalis BC-3531
Procedure: as §1, §2

E. faecalis MGH-2 = settings: Enterococcus faecalis, MGH2; Gram Positive Bacteria; strain MGH-2; read-out: Minimum Inhibitory Concentrations E. faecalis MGH-2
Procedure: as §1, §2

S pyogenes C203 = settings: Gram Positive Bacteria; strain C203; read-out: Minimum Inhibitory Concentrations S pyogenes C203
Procedure: as §1, §2

S. aureus UC-76 = settings: Staphylococcus aureus, UC76; Gram Positive Bacteria; strain UC-76; read-out: Minimum Inhibitory Concentrations S. aureus UC-76
Procedure: as §1, §2

S. pneumo SV-1 = settings: Streptococcus pneumoniae, SV1; Gram Positive Bacteria; strain SV-1; read-out: Minimum Inhibitory Concentrations S. pneumo SV-1
Procedure: as §1, §2

Structure (SMILES)	MIC (E. coli EC-2549) [µg/mL]	MIC (H. influenzae HI-3542) [µg/mL]	MIC (M. catarrhalis BC-3531) [µg/mL]	MIC (E. faecalis MGH-2) [µg/mL]	MIC (S pyogenes C203) [µg/mL]	MIC (S. aureus UC-76) [µg/mL]	MIC (S. pneumo SV-1) [µg/mL]
Cc1c(N2CCC(CO)C2)c(F)cc2c(=O)n(N)c(=O)n(C3CC3)c12 (stereo not shown) [drawing 311]	4 (≈ 11.5 µM)	0.5 (≈ 1.44 µM)	1 (≈ 2.87 µM)	–	–	–	–
COc1c(N2CCC(C(O)c3ncco3)C2)c(F)cc2c(=O)n(N)c(=O)n(C3CC3)c12 (stereo not shown) [drawing 312]	32 (≈ 74.2 µM)	2 (≈ 4.64 µM)	2 (≈ 4.64 µM)	–	–	–	–
Cc1c(N2CCC(C(O)c3ncco3)C2)c(F)cc2c(=O)n(N)c(=O)n(C3CC3)c12 (stereo not shown) [drawing 313]	16 (≈ 38.5 µM)	1 (≈ 2.41 µM)	2 (≈ 4.81 µM)	–	–	–	–
COc1c(N2CCC(C(O)C(C)(F)F)C2)c(F)cc2c(=O)n(N)c(=O)n(C3CC3)c12 (stereo not shown) [drawing 314]	64 (≈ 149 µM)	4 (≈ 9.34 µM)	8 (≈ 18.7 µM)	–	–	–	–
COc1c(N2CCC(CCO)C2)c(F)cc2c(=O)n(N)c(=O)n(C3CC3)c12 (stereo not shown) [drawing 315]	16 (≈ 42.3 µM)	2 (≈ 5.29 µM)	1 (≈ 2.64 µM)	–	–	–	–
COc1c(N2CCC(C(O)C3(CO)CC3)C2)c(F)cc2c(=O)n(N)c(=O)n(C3CC3)c12 (stereo not shown) [drawing 316]	8 (≈ 18.4 µM)	1 (≈ 2.3 µM)	1 (≈ 2.3 µM)	–	–	–	–
Cc1c(N2CCC(C(O)CO)C2)c(F)cc2c(=O)n(N)c(=O)n(C3CC3)c12 (stereo not shown) [drawing 317]	4 (≈ 10.6 µM)	0.5 (≈ 1.32 µM)	1 (≈ 2.64 µM)	–	–	–	–
COc1c(N2CCC(C(O)C(F)(F)F)C2)c(F)cc2c(=O)n(N)c(=O)n(C3CC3)c12 (stereo not shown) [drawing 318]	2 (≈ 4.63 µM)	0.125 (≈ 0.289 µM)	0.125 (≈ 0.289 µM)	–	–	–	–
COCC1CCN(c2c(F)cc3c(=O)n(N)c(=O)n(C4CC4)c3c2OC)C1 (stereo not shown) [drawing 319]	32 (≈ 84.6 µM)	4 (≈ 10.6 µM)	4 (≈ 10.6 µM)	–	–	–	–
Cc1c(N2CCC(CO)C2)c(F)cc2c(=O)n(N)c(=O)n(C3CC3)c12 (stereo not shown) [drawing 320]	–	–	–	2 (≈ 5.74 µM)	2 (≈ 5.74 µM)	0.5 (≈ 1.44 µM)	1 (≈ 2.87 µM)
COc1c(N2CCC(C(O)c3ncco3)C2)c(F)cc2c(=O)n(N)c(=O)n(C3CC3)c12 (stereo not shown) [drawing 321]	–	–	–	8 (≈ 18.5 µM)	8 (≈ 18.5 µM)	0.5 (≈ 1.16 µM)	8 (≈ 18.5 µM)
Cc1c(N2CCC(C(O)c3ncco3)C2)c(F)cc2c(=O)n(N)c(=O)n(C3CC3)c12 (stereo not shown) [drawing 322]	–	–	–	8 (≈ 19.3 µM)	4 (≈ 9.63 µM)	1 (≈ 2.41 µM)	4 (≈ 9.63 µM)
COc1c(N2CCC(C(O)C(C)(F)F)C2)c(F)cc2c(=O)n(N)c(=O)n(C3CC3)c12 (stereo not shown) [drawing 323]	–	–	–	16 (≈ 37.3 µM)	8 (≈ 18.7 µM)	2 (≈ 4.67 µM)	8 (≈ 18.7 µM)
COc1c(N2CCC(CCO)C2)c(F)cc2c(=O)n(N)c(=O)n(C3CC3)c12 (stereo not shown) [drawing 324]	–	–	–	4 (≈ 10.6 µM)	4 (≈ 10.6 µM)	0.5 (≈ 1.32 µM)	2 (≈ 5.29 µM)
COc1c(N2CCC(C(O)C3(CO)CC3)C2)c(F)cc2c(=O)n(N)c(=O)n(C3CC3)c12 (stereo not shown) [drawing 325]	–	–	–	4 (≈ 9.21 µM)	8 (≈ 18.4 µM)	0.5 (≈ 1.15 µM)	4 (≈ 9.21 µM)
Cc1c(N2CCC(C(O)CO)C2)c(F)cc2c(=O)n(N)c(=O)n(C3CC3)c12 (stereo not shown) [drawing 326]	–	–	–	2 (≈ 5.29 µM)	1 (≈ 2.64 µM)	0.25 (≈ 0.661 µM)	1 (≈ 2.64 µM)

Structure (SMILES)	MIC (E. coli EC-2549) [µg/mL]	MIC (H. influenzae HI-3542) [µg/mL]	MIC (M. catarrhalis BC-3531) [µg/mL]	MIC (E. faecalis MGH-2) [µg/mL]	MIC (S pyogenes C203) [µg/mL]	MIC (S. aureus UC-76) [µg/mL]	MIC (S. pneumo SV-1) [µg/mL]
COc1c(N2CCC(C(O)C(F)(F)F)C2)c(F)cc2c(=O)n(N)c(=O)n(C3CC3)c12 (stereo not shown) [drawing 327]	–	–	–	1 (≈ 2.31 µM)	1 (≈ 2.31 µM)	0.06 (≈ 0.139 µM)	0.5 (≈ 1.16 µM)
COCC1CCN(c2c(F)cc3c(=O)n(N)c(=O)n(C4CC4)c3c2OC)C1 (stereo not shown) [drawing 328]	–	–	–	4 (≈ 10.6 µM)	4 (≈ 10.6 µM)	1 (≈ 2.64 µM)	2 (≈ 5.29 µM)
Nn1c(=O)c2cc(F)c(N3C[C@@H](CO)[C@@H](CO)C3)nc2n(C2CC2)c1=O [drawing 330]	16 (≈ 43.8 µM)	0.5 (≈ 1.37 µM)	1 (≈ 2.74 µM)	–	–	–	–
Nn1c(=O)c2cc(F)c(N3C[C@H](CO)[C@@H](CO)C3)nc2n(C2CC2)c1=O [drawing 331]	32 (≈ 87.6 µM)	1 (≈ 2.74 µM)	4 (≈ 10.9 µM)	–	–	–	–
Nn1c(=O)c2cc(F)c(N3C[C@@H](O)[C@@H](O)C3)nc2n(C2CC2)c1=O [drawing 332]	16 (≈ 47.4 µM)	0.5 (≈ 1.48 µM)	2 (≈ 5.93 µM)	–	–	–	–
Nn1c(=O)c2cc(F)c(N3C[C@@H](CCO)[C@@H](CCO)C3)nc2n(C2CC2)c1=O [drawing 333]	0.125 (≈ 0.318 µM)	0.015 (≈ 0.0381 µM)	0.06 (≈ 0.153 µM)	–	–	–	–
Nn1c(=O)c2cc(F)c(N3C[C@H](CO)[C@H](F)C3)nc2n(C2CC2)c1=O [drawing 334]	4 (≈ 11.3 µM)	0.5 (≈ 1.42 µM)	1 (≈ 2.83 µM)	–	–	–	–
Nn1c(=O)c2cc(F)c(N3C[C@@H](CO)[C@@H](CO)C3)nc2n(C2CC2)c1=O [drawing 335]	–	–	–	4 (≈ 10.9 µM)	1 (≈ 2.74 µM)	0.25 (≈ 0.684 µM)	2 (≈ 5.47 µM)
Nn1c(=O)c2cc(F)c(N3C[C@H](CO)[C@@H](CO)C3)nc2n(C2CC2)c1=O [drawing 336]	–	–	–	8 (≈ 21.9 µM)	2 (≈ 5.47 µM)	0.5 (≈ 1.37 µM)	4 (≈ 10.9 µM)
Nn1c(=O)c2cc(F)c(N3C[C@@H](O)[C@@H](O)C3)nc2n(C2CC2)c1=O [drawing 337]	–	–	–	8 (≈ 23.7 µM)	8 (≈ 23.7 µM)	2 (≈ 5.93 µM)	8 (≈ 23.7 µM)
Nn1c(=O)c2cc(F)c(N3C[C@@H](CCO)[C@@H](CCO)C3)nc2n(C2CC2)c1=O [drawing 338]	–	–	–	0.06 (≈ 0.153 µM)	0.03 (≈ 0.0763 µM)	0.002 (≈ 0.00508 µM)	0.03 (≈ 0.0763 µM)
Nn1c(=O)c2cc(F)c(N3C[C@H](CO)[C@H](F)C3)nc2n(C2CC2)c1=O [drawing 339]	–	–	–	4 (≈ 11.3 µM)	4 (≈ 11.3 µM)	0.25 (≈ 0.708 µM)	2 (≈ 5.66 µM)
Cc1c(N2C[C@](C)(CO)[C@](C)(CO)C2)c(F)cc2c(=O)n(N)c(=O)n(C3CC3)c12 [drawing 341]	64 (≈ 157 µM)	16 (≈ 39.4 µM)	32 (≈ 78.7 µM)	–	–	–	–
Cc1c(N2C[C@](C)(CO)[C@](C)(CO)C2)c(F)cc2c(=O)n(N)c(=O)n(C3CC3)c12 [drawing 342]	–	–	–	16 (≈ 39.4 µM)	32 (≈ 78.7 µM)	2 (≈ 4.92 µM)	16 (≈ 39.4 µM)
Cc1c(N2CC3CCC(O)(CO)C3C2)c(F)cc2c(=O)n(N)c(=O)n(C3CC3)c12 (stereo not shown) [drawing 344]	32 (≈ 79.1 µM)	4 (≈ 9.89 µM)	4 (≈ 9.89 µM)	–	–	–	–
Cc1c(N2CC3CCC(O)(CO)C3C2)c(F)cc2c(=O)n(N)c(=O)n(C3CC3)c12 (stereo not shown) [drawing 345]	–	–	–	8 (≈ 19.8 µM)	8 (≈ 19.8 µM)	1 (≈ 2.47 µM)	8 (≈ 19.8 µM)
